For one test, the target named is T1, estrogen receptor (Rattus norvegicus, UniProt P06211).
T1 construct: ovariectomized rat uterine cytosolic estrogen receptor preparation; from tissue; host or cells: uterine cytosol of ovariectomized Sprague-Dawley rats (immature rats from Sasco are named as uterus source, mature ovariectomized rats)
T1 sequence (P06211 1-600): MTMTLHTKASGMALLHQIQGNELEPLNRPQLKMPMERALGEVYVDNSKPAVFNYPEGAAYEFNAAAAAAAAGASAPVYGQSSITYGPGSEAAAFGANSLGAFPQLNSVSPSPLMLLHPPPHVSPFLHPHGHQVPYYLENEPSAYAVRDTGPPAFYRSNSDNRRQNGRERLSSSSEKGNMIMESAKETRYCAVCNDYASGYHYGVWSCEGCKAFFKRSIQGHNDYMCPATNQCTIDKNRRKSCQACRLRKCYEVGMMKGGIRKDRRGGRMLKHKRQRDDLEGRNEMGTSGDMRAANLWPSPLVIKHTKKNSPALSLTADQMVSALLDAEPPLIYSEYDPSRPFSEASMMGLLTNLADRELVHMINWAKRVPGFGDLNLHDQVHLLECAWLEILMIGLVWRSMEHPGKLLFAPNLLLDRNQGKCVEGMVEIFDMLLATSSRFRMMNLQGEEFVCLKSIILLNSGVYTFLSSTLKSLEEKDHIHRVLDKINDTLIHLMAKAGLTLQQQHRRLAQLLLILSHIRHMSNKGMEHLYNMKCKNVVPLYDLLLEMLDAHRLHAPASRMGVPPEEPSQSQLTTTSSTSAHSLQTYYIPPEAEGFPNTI
Conditions: cited from earlier work; for RBA (relative binding affinity): relative to estradiol = 100%.

Test [1] deals with MCF-7 human breast cancer cells. Conditions: 10^-6 M; Day et al., J. Med. Chem. 34, 842-851 (1991); cited from earlier work.
For test [2], the system named is Immature Swiss-Webster female mice (estradiol-stimulated uterine weight). Nature of the test: Antiuterotrophic assay for antiestrogenic activity in immature mice. To be noted: 0.4, 0.8, and 1.6 mg; three-day assay; estradiol 0.03 μg. The class given is in vivo, mouse (Swiss-Webster). An excerpt:
The biological evaluation of the test compounds consisted of the in vitro rat cytosolic estradiol receptor binding assay, the in vivo immature mouse uterotrophic (estrogenic) and antiuterotrophic (antiestrogenic) assays, and the in vitro suppression of the proliferation of the ER positive MCF-7 human breast cancer cell line.
Vital-free immature female Swiss-Webster mice were obtained at 17-19 days of age from Sasco weighing 8-10 g, and were used in the uterotrophic and antiuterotrophic assays. Immature female Sprague-Dawley rats, obtained at 17-19 days of age from Sasco, weighing 28-33 g, were used as sources of uteri for the estradiol receptor binding assay. Animals were housed in wire topped polycarbonate cages at six animals per cage, with the environment controlled at 25° C. and a 12 h light/dark cycle. […]
The antiestrogenic assay was conducted as described for the estrogenic assay, except that each mouse in the cyclopropyl treatment groups received a standard stimulating dose of estradiol (0.03 μg) in sesame oil (0.1 mL) and the test compounds or MER 25 were administered in isopropyl myristate (0.05 mL) in a dosage range of 0.4, 0.8 and 1.6 mg (total dose). […] Antiestrogenic activity was measured as a decrease in the estradiol-stimulated […] response in groups that received both the test compound and estradiol as compared to the group treated only with estradiol.

Where two headings read alike, the source gives them in different places.

With `ClC1(Cl)[C@H](c2ccccc2)[C@@H]1c1ccccc1` [Analog II], on estrogen receptor (Day et al., J. Med. Chem. 34, 842-851 (1991)), the “RBA (relative binding affinity)” value is 0.01%. Besides, the “MCF-7 Inhibition” value in test [1] is on record as 20.4%.
Regarding `CCN(CC)CCOc1ccc(C(O)(Cc2ccc(OC)cc2)c2ccccc2)cc1` (centres unmarked) [MER-25], the “antiestrogenic activity: effect on estradiol-induced uterine weight gain (in words)” value in test [2] is listed as “significant reduction in estradiol-induced uterotrophic activity”. Further, the “RBA (relative binding affinity)” value at estrogen receptor (footnote e, Day et al. (1991)) is listed as “--^e (Less than 0.01%.)”. Also, at estrogen receptor (standards, Day et al., 1991), the “[3H]-estradiol displacement curve (in words)” value was “very weak dose-related displacement”.

The values are drawn from patent publication US5663207A, “Gem-dichlorocyclopropanes as antitumor agents” (priority 1995, dated 1997).
